These results are taken from patent US20090149584A1, “USE OF HEXAHYDROPHTHALIMIDE COMBINATIONS AS SOFTENER” (priority 2006, published 2009).

What all share (type): physicochemical
A short description of one data set: Boiling point.
Data set [1] in a line: Vapor pressure measurement (annex A4 to 92/69/ECC, OECD 104, EPA OPPTS 830.7950). As for the experimental part: (§1) In accordance with DIN 53408, the solution temperatures of N-2-ethylhexylhexahydrophthalimide were measured for PVC. For comparison, the solution temperatures of the known plasticizers di(2-ethylhexyl) phthalate and diisobutyl phthalate were determined. Vapor pressure measurements were carried out in accordance with annex A4 to European Commission specification 92/69/ECC, OECD test specification 104 and, respectively, EPA test specification OPPTS 830.7950. The following table compares the results.

The nature of data set [2]: Solution temperature for PVC in accordance with DIN 53408.
Source text: A particularly important factor for the use of plasticizers is their gelling performance for PVC. Gelling performance is the capability of a plasticizer to penetrate into the polymeric structure of the PVC and to bring about a plasticizing effect by reducing the level of interaction between the polymer chains. A measure of the gelling performance of a plasticizer is the solution temperature for PVC, determined to DIN 53408. The lower the solution temperature, the better the gelling performance. Better gelling performance or lower solution temperature of the plasticizer means that lower processing temperatures can be selected in the production of flexible PVC. Lower temperatures save energy and time.
as §1

`CC(C)COC(=O)c1ccccc1C(=O)OCC(C)C` [Diisobutyl phthalate, diisobutyl phthalate] yielded a Boiling point in “Boiling point” of 295 °C. The Vapor pressure in data set [1] (140° C.) amounted to 1.50 hPa; in data set [1] (160° C.) it was 4.20 hPa; in data set [1] (180° C.) it was 10.70 hPa; in data set [1] (200° C.), 24.40 hPa. The “Solution temperature for PVC” value in data set [2] was 99 °C.
For N-2-ethylhexylhexahydrophthalimide, in data set [2], the “Solution temperature for PVC” value came out at 99 °C.
`CCCCC(CC)COC(=O)c1ccccc1C(=O)OCC(CC)CCCC` (stereo not shown) [Di(2-ethylhexyl) phthalate, di(2-ethylhexyl) phthalate] displayed a Boiling point in the data set “Boiling point” of 384 °C. The Vapor pressure in data set [1] (140° C.) is recorded as 0.04 hPa; in data set [1] (160° C.), 0.17 hPa; in data set [1] (180° C.), 0.58 hPa; in data set [1] (200° C.), 1.80 hPa. The “Solution temperature for PVC” value in data set [2] is 124 °C.
